According to PubChem BioAssay (NCI):
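Results reflect a 48-hour exposure of cells in 96-well plates to compound at five concentrations. Abbreviation: GI50, concentration required for 50% inhibition of growth. TGI: total growth inhibition.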

Key:
Test in all cases: NCI tumour cell line growth inhibition, 48 h
MDA-MB-231 breast = system: MDA-MB-231 breast
RPMI-8226 leukemia = system: RPMI-8226 leukemia
NCI-H23 lung = system: NCI-H23 lung
UACC-62 melanoma = system: UACC-62 melanoma
UACC-257 melanoma = system: UACC-257 melanoma
SF-268 CNS = system: SF-268 CNS
786-0 renal = system: 786-0 renal
NCI-H226 lung = system: NCI-H226 lung
SF-295 CNS = system: SF-295 CNS
SR leukemia = system: SR leukemia

| SMILES | GI50 (MDA-MB-231 breast) | TGI (MDA-MB-231 breast) | GI50 (RPMI-8226 leukemia) | TGI (RPMI-8226 leukemia) | GI50 (NCI-H23 lung) | TGI (NCI-H23 lung) | GI50 (UACC-62 melanoma) | TGI (UACC-62 melanoma) | GI50 (UACC-257 melanoma) | TGI (UACC-257 melanoma) | GI50 (SF-268 CNS) | TGI (SF-268 CNS) | GI50 (786-0 renal) | TGI (786-0 renal) | GI50 (NCI-H226 lung) | TGI (NCI-H226 lung) | GI50 (SF-295 CNS) | TGI (SF-295 CNS) | TGI (SR leukemia) | GI50 (SR leukemia) |
| --- | --- | --- | --- | --- | --- | --- | --- | --- | --- | --- | --- | --- | --- | --- | --- | --- | --- | --- | --- | --- |
| CSC(=S)NCc1cn(C)c2ccccc12 | 15.4 µM | 44.5 µM | 30.7 µM | > 100 µM | 29.8 µM | 87.7 µM | 20.1 µM | 42.7 µM | 54.8 µM | > 100 µM | 23.5 µM | 68 µM | 24.8 µM | > 100 µM | 23.4 µM | 64.8 µM | 33.5 µM | > 100 µM | – | – |
| Cn1cnnc1Sc1c([N+](=O)[O-])nc(-c2ccc([N+](=O)[O-])cc2)n1C | – | – | – | 37.8 µM | – | 32.4 µM | – | 30.4 µM | – | 29.5 µM | – | 32.5 µM | – | 31.8 µM | – | 89.9 µM | – | > 100 µM | 35.5 µM | – |
| C=C(CN1CCc2ccccc2C1)c1ccc(CCCC(=O)Nc2ccccc2N)cc1 | 10.2 µM | 26.3 µM | 5.37 µM | 22.2 µM | 20.1 µM | 48.6 µM | 15.1 µM | 30.8 µM | 17.4 µM | 42 µM | > 100 µM | > 100 µM | 12.1 µM | 28.2 µM | 28.8 µM | 94.6 µM | 14.6 µM | 39.9 µM | – | – |
| CCCCn1c(-c2ccccc2)cs/c1=N\NC(=O)Cn1c(C)nc2ccccc21 | – | – | – | > 100 µM | – | > 100 µM | – | > 100 µM | – | > 100 µM | – | – | – | > 100 µM | – | > 100 µM | – | > 100 µM | 50.9 µM | – |
| O=C(O)C12C=CC(C1)c1ccccc12 (stereo not given) | – | – | – | > 100 µM | – | > 100 µM | – | > 100 µM | – | > 100 µM | – | > 100 µM | – | > 100 µM | – | > 100 µM | – | > 100 µM | > 100 µM | – |
| C/C(=N/NC(N)=S)C(CN1CCOCC1)C(C1=C(O)c2ccccc2OC1)c1ccccc1 (stereo not given) | – | – | – | > 100 µM | – | > 100 µM | – | > 100 µM | – | > 100 µM | – | > 100 µM | – | > 100 µM | – | > 100 µM | – | > 100 µM | > 100 µM | – |
| N.N.N.N.O=S([O-])[O-].[Co+3].[N-]=[N+]=[N-] | – | – | > 100 µM | > 100 µM | > 100 µM | > 100 µM | > 100 µM | > 100 µM | > 100 µM | > 100 µM | > 100 µM | > 100 µM | > 100 µM | > 100 µM | – | – | > 100 µM | > 100 µM | – | – |
| O=C1C(=O)N(c2cc(Cl)ccc2Cl)C(=O)C(=O)C1c1nc2ccccc2s1 | – | – | – | > 100 µM | – | > 100 µM | – | > 100 µM | – | > 100 µM | – | > 100 µM | – | > 100 µM | – | > 100 µM | – | > 100 µM | – | – |
| O=C1c2ccccc2-c2c1c1ccccc1c(=O)n2CCNCCNCCNCCNCCn1c2c(c3ccccc3c1=O)C(=O)c1ccccc1-2 | 0.0846 µM | 1.6 µM | 0.0178 µM | 0.187 µM | 0.615 µM | 2.75 µM | 0.447 µM | 1.71 µM | 0.716 µM | 5.73 µM | 0.049 µM | 0.808 µM | 0.102 µM | 2.19 µM | 0.368 µM | 1.95 µM | – | – | – | – |
| CCOC(=O)NN1C(=O)C(=P(c2ccccc2)(c2ccccc2)c2ccccc2)C(C(=O)OC)=C1C | – | – | – | > 100 µM | – | > 100 µM | – | > 100 µM | – | > 100 µM | – | > 100 µM | – | > 100 µM | – | > 100 µM | – | > 100 µM | > 100 µM | – |
| CNC(=O)NCCCCC(NC(C)=O)C(=O)NCc1ccccc1 (stereo not given) | – | – | – | > 100 µM | – | > 100 µM | – | > 100 µM | – | > 100 µM | – | > 100 µM | – | > 100 µM | – | > 100 µM | – | > 100 µM | – | – |
| CCNc1ccc2c(c1)C(=O)N(OS(C)(=O)=O)C2=O | – | > 100 µM | – | 87.3 µM | – | > 100 µM | – | > 100 µM | – | > 100 µM | – | > 100 µM | – | > 100 µM | – | 97.1 µM | – | > 100 µM | – | – |
| CCOC(=O)c1sc(NC(=O)COc2ccc(/C=C3\CCc4cc(OC)ccc4C3=O)cc2)nc1C | 13.1 µM | 31.8 µM | 0.684 µM | 6.64 µM | 13.7 µM | 32.4 µM | 11.3 µM | 23.4 µM | 11.5 µM | 25 µM | 11.4 µM | 26.5 µM | 11.5 µM | 24.7 µM | 13.3 µM | 27.3 µM | 11.1 µM | 23.9 µM | – | – |
| COC(OC)c1cccnc1C | – | – | – | – | – | > 100 µM | – | > 100 µM | – | > 100 µM | – | > 100 µM | – | > 100 µM | – | – | – | > 100 µM | > 100 µM | – |
| COc1cc(C2CC(c3ccc(Cl)cc3)=NN2C(C)=O)ccc1Oc1ccnc2cc(Cl)ccc12 (stereo not given) | – | – | > 100 µM | > 100 µM | – | – | > 100 µM | > 100 µM | > 100 µM | > 100 µM | – | – | 2.63 µM | > 100 µM | – | – | 4.22 µM | > 100 µM | > 100 µM | > 100 µM |
| O=C(Cc1nc2ccccc2s1)C(=O)Nc1cccc(C(F)(F)F)c1 | – | – | – | – | – | > 100 µM | – | > 100 µM | – | > 100 µM | – | > 100 µM | – | > 100 µM | – | > 100 µM | – | > 100 µM | > 100 µM | – |
| C=C(c1ccccc1)c1cc2c(=O)[nH]ccc2n1C | – | – | – | > 100 µM | – | > 100 µM | – | > 100 µM | – | > 100 µM | – | > 100 µM | – | > 100 µM | – | – | – | 82.9 µM | – | – |
| O=C(CC1(O)CCCCC1)OC1CCCC1 | – | > 100 µM | – | – | – | > 100 µM | – | > 100 µM | – | > 100 µM | – | > 100 µM | – | > 100 µM | – | > 100 µM | – | > 100 µM | – | – |
